Assay results as given in patent US10377985B2, “Neural progenitor cell differentiation” (priority 2013, dated 2019).
“And” between values parts separate entries of the source, which are not always exact repeats. Equal entries are not always repeated. “Also recorded” adds a separate entry of the source.

Assays:
[1] = tested on: native rabbit intestinal tissue
[2] = tested on: native rabbit intestinal tissue; experiment: Electrical field stimulation induced relaxation, real-time force generation
[3] = tested on: native rabbit intestinal tissue; remark: listed apart in the source
[4] = tested on: tissue engineered innervated intestinal smooth muscle sheets; experiment: Electrical field stimulation induced relaxation, real-time force generation; format: cell-based, rabbit
[5] = tested on: tissue engineered innervated intestinal smooth muscle sheets; format: cell-based, rabbit

## [Cl-].[K+] [KCl, Potassium chloride]
[1]
  peak KCl-induced contraction: 373.5±10.63 μN and 373.3±10.63 μN

## [D-p-Cl-Phe6, Leu17]-Vasoactive Intestinal Peptide [VIP-Ra]
[2]; VIP-Ra 2 μM pre-treatment
  inhibition of EFS-induced relaxation with VIP-Ra: 73.32±3.23%

## NC1=N[C@H](O)[C@H]2[C@H]3O[C@]4(O)O[C@@H]([C@@H](O)[C@@]2(N1)[C@@H]4O)[C@]3(O)CO [TTX, tetrodotoxin]
[3]
  inhibition of Ach-induced contraction with TTX: 72.73±3.66% and 72.73±3.7%
[4]
  effect of TTX pre-treatment on EFS-induced relaxation: inhibited entirely
[5]
  effect of TTX pre-treatment on KCl-induced contraction: unaffected; also recorded: did not inhibit

## COC(=O)[C@@H](N)CCCNC(=N)N[N+](=O)[O-].Cl [L-NAME, Nω-Nitro-L-arginine methyl ester hydrochloride]
[2]; L-NAME 300 μM pre-treatment, hydrochloride
  inhibition of EFS-induced relaxation with L-NAME: 78±2.9% and ~78%
[2]; Oryctolagus cuniculus, L-NAME 300 μM pre-treatment, read-out: inhibition of EFS-induced relaxation with L-NAME
  inhibition at 300 µM: 78 ± 2.85%

## CC(=O)OCC[N+](C)(C)C [Ach, Acetylcholine]
[3]; 1 μM Ach, native tissue
  area under the curve of Ach-induced contraction: 70448±5876 AU
  peak Ach-induced contraction: 342.6±3.15 μN
